Source: US8853409B2, “Pyridin-2yl-amino-1, 2, 4-thiadiazole derivatives as glucokinase activators for the treatment of diabetes mellitus” (Array BioPharma Inc., priority 2007, dated 2014)

test: Mouse PK study (oral pharmacokinetics); format: in vivo; conditions: male, 10 mg/kg, CD-1 mice, plasma, read-out: AUC indicator (oral AUC)
Procedure: Oral pharmacokinetics of each of the compounds shown in Table 1 (“test compound”) were determined as follows.
Test compound was formulated in PEG400:ethanol:saline (40:20:40, by volume) for IV administration and in 30% Captisol in water for both IV and PO administration in CD-1 mice. Labetalol was used as an internal standard for the LC-MS/MS assay of the CD-1 mouse samples.
Adult male CD-1 mice were obtained from Charles River Laboratories in Portage, Mich. At the time of study-start, each CD-1 mouse weighed approximately 30 grams and was between the ages of 7-9 weeks. All CD-1 mice were acclimated to the Array BioPharma Inc. vivarium for at least 5 days prior to administration of an IV dose by way of a tail vein injection (5 mL/kg) or a PO dose by oral gavage (10 mL/kg).
Animals were euthanized by CO2 inhalation and blood samples were collected by cardiac puncture into syringes containing a 1.5% EDTA solution in water (w/v; pH was titrated to 7.4 with 5 N NaOH; the final ratio of blood to EDTA was approximately […]) as the anticoagulant. Plasma was harvested from blood samples by centrifugation and stored at −20° C. until analysis. The following time points were collected for the IV arm: 0.017, 0.083, 0.25, 0.5, 1, 2, 4, 8, 12 and 24 hours post dose. The following time points were collected for the PO arm: 0.25, 0.50, 1, 4, 8, and 24 hours post dose.
Protein was precipitated from 20 μL of mouse plasma with the addition of 200 μL of 0.1% acetic acid in acetonitrile. A single 12-point calibration curve was prepared by first serially diluting (3-fold) a 40-μg/mL stock solution of the test compound in acetonitrile. Naive CD-1 mouse plasma (20 μL) was then added to each standard solution (200 μL). A stock solution of the internal standard (Labetalol; 180 μL of 0.1 μg/mL in acetonitrile) was subsequently added to each standard and sample solution, for a total volume of 400 μL. Samples were vortex-mixed for 5 minutes and spun in an Allegra X-12R centrifuge (Beckman Coulter, Fullerton, Calif.) for 15 minutes at approximately 1,500×g at 4° C. A 100-μL aliquot of each supernatant was transferred via a 550 μL Personal Pipettor (Apricot Designs, Monrovia, Calif.) to 96-well plates and diluted 1:1 with HPLC grade water. The resulting plates were sealed with plate mats and analyzed by LC-MS/MS.
The LC-MS/MS system was comprised of an HTC-PAL autosampler (Leap Technologies, Inc., Carrboro, N.C.), an HP1100 HPLC (Agilent Technologies Inc., Santa Clara, Calif.), and an API4000 triple quadrupole mass spectrometer (Applied Biosystems, Foster City, Calif.). Chromatographic retention of the analyte and internal standard was achieved using a Betasil Phenyl-Hexyl column (2.1×30 mm, 3 μm particle size, Thermo Scientific) in conjunction with gradient conditions using mobile phases A (aqueous 0.1% formic acid and 1% IPA) and B (0.1% formic acid in acetonitrile). The total run time, including re-equilibration time, for a single injection was 3.5 minutes. Mass spectrometric detection of the analytes was accomplished using ESI+ ionization mode. Ion current was optimized during infusion of a stock solution of the test compound. Analyte responses were measured by multiple reaction monitoring (MRM) of transitions unique to each compound.
Data were acquired and processed using the Applied Biosystems Analyst software (version 1.4.2). Calibration was achieved by plotting the peak area ratios of analyte to internal standard as a function of the normal concentrations of standard samples. A calibration model was generated by quadratic regression of the calibration curve with a weighting factor of 1/x. The model was used to calculate the concentrations in all samples. The lower limit of quantitation (LLOQ) for this analysis was in the single-digit μg/mL range (either 2.03 or 6.10 μg/mL).
Pharmacokinetic parameters were calculated by established non-compartmental methods using an in-house Excel® (Microsoft Corporation, Redmond, Wash.) macro, PK Toolbox version 2.0. […]

| AUC | Structure (SMILES) |
| --- | --- |
| 10000 to 20000 ng·h/mL | Cc1ncccc1Oc1cc(Sc2ccccn2)cnc1Nc1nc([C@H](O)CO)ns1.Cl [Example 134, (S)-1-(5-(3-(2-methylpyridin-3-yloxy)-5-(pyridin-2-ylthio)pyridin-2-ylamino)-1,2,4-thiadiazol-3-yl)ethane-1,2-diol hydrochloride] |
| 5000 to 10000 ng·h/mL | Cc1ccc(Oc2cc(Sc3ccccn3)cnc2Nc2nc([C@H](O)CO)ns2)c(C)n1.Cl [Example 135, (S)-1-(5-(3-(2,6-dimethylpyridin-3-yloxy)-5-(pyridin-2-ylthio)pyridin-2-ylamino)-1,2,4-thiadizol-3-yl)ethane-1,2-diol hydrochloride] |
| 10000 to 20000 ng·h/mL | Cc1ncccc1Oc1cc(SCC2CC2)cnc1Nc1nc([C@H](O)CO)ns1.Cl [Example 136, (S)-1-(5-(5-(cyclopropylmethylthio)-3-(2-methylpyridin-3-yloxy)pyridin-2-ylamino)-1,2,4-thiadizol-3-yl)ethane-1,2-diol hydrochloride] |
| 5000 to 10000 ng·h/mL | CCc1ncccc1Oc1cc(Sc2ccccn2)cnc1Nc1nc([C@H](O)CO)ns1 [Example 137] |
| 1000 to 5000 ng·h/mL | COCCCSc1cnc(Nc2nc([C@H](O)CO)ns2)c(Oc2cccnc2C)c1.Cl [Example 138, (S)-1-(5-(5-(3-methoxypropylthio)-3-(2-methylpyridin-3-yloxy)-pyridin-2-ylamino)-1,2,4-thiadizol-3-yl)ethane-1,2-diol hydrochloride] |
| > 20000 ng·h/mL | CCn1nccc1Oc1cc(Sc2ccccn2)cnc1Nc1nc([C@H](O)CO)ns1.Cl [Example 139, (S)-1-(5-(3-(1-Ethyl-1H-pyrazol-5-yloxy)-5-(pyridin-2-ylthio)pyridin-2-ylamino)-1,2,4-thiadiazol-3-yl)ethane-1,2-diol hydrochloride] |
| > 20000 ng·h/mL | CCn1nccc1Oc1cc(Sc2ccccn2)cnc1Nc1nc([C@H](O)C(C)(C)O)ns1.Cl [Example 140, (S)-1-(5-(3-(1-ethyl-1H-pyrazol-5-yloxy)-5-(pyridin-2-ylthio)pyridin-2-ylamino)-1,2,4-thiadiazol-3-yl)-2-methylpropane-1,2-diol] |
| 1000 to 5000 ng·h/mL | Cc1cccnc1Sc1cnc(Nc2nc([C@H](O)CO)ns2)c(Oc2cccnc2C)c1.Cl [Example 141, (S)-1-(5-(5-(3-methylpyridin-2-ylthio)-3-(2-methylpyridin-3-yloxy)pyridin-2-ylamino)-1,2,4-thiadiazol-3-yl)ethane-1,2-diol hydrochloride] |
| 1000 to 5000 ng·h/mL | Cc1ccnc(C)c1Oc1cc(Sc2ccccn2)cnc1Nc1nc([C@H](O)CO)ns1.Cl [Example 142, (S)-1-(5-(3-(2,4-dimethylpyridin-3-yloxy)-5-(pyridin-2-ylthio)pyridin-2-ylamino)-1,2,4-thiadiazol-3-yl)ethane-1,2-diol hydrochloride] |
| > 20000 ng·h/mL | Cc1ncccc1Oc1cc(Sc2ccccn2)cnc1Nc1nc([C@H](O)C(C)(C)O)ns1.Cl [Example 143, (S)-2-methyl-1-(5-(3-(2-methylpyridin-3-yloxy)-5-(pyridin-2-ylthio)pyridin-2-ylamino)-1,2,4-thiadiazol-3-yl)propane-1,2-diol hydrochloride] |
| 5000 to 10000 ng·h/mL | COCCSc1cnc(Nc2nc([C@H](O)CO)ns2)c(Oc2cccnc2C)c1.Cl [Example 144, (S)-1-(5-(5-(2-methoxyethylthio)-3-(2-methylpyridin-3-yloxy)pyridin-2-ylamino)-1,2,4-thiadiazol-3-yl)ethane-1,2-diol hydrochloride] |
| 5000 to 10000 ng·h/mL | CCc1ncccc1Oc1cc(Sc2ccccn2)cnc1Nc1nc([C@H](O)[C@@H](O)COC)ns1.Cl [Example 145, (1S,2S)-1-(5-(3-(2-ethylpyridin-3-yloxy)-5-(pyridin-2-ylthio)pyridin-2-ylamino)-1,2,4-thiadiazol-3-yl)-3-methoxypropane-1,2-diol hydrochloride] |
| 10000 to 20000 ng·h/mL | Cc1nn(C)c(C)c1Oc1cc(Sc2ccccn2)cnc1Nc1nc([C@H](O)C(C)(C)O)ns1.Cl [Example 146, (S)-2-methyl-1-(5-(5-(pyridin-2-ylthio)-3-(1,3,5-trimethyl-1H-pyrazol-4-yloxy)pyridin-2-ylamino)-1,2,4-thiadiazol-3-yl)propane-1,2-diol hydrochloride] |
| 1000 to 5000 ng·h/mL | Cc1nn(C)c(C)c1Oc1cc(Sc2ccccn2)cnc1Nc1nc([C@H](O)CO)ns1.Cl [Example 147, (S)-1-(5-(5-(pyridin-2-ylthio)-3-(1,3,5-trimethyl-1H-pyrazol-4-yloxy)pyridin-2-ylamino)-1,2,4-thiadiazol-3-yl)ethane-1,2-diol hydrochloride] |
| 1000 to 5000 ng·h/mL | COCCSc1cnc(Nc2nc([C@H](O)CO)ns2)c(Oc2c(C)nn(C)c2C)c1.Cl [Example 148, (S)-1-(5-(5-(2-methoxyethylthio)-3-(1,3,5-trimethyl-1H-pyrazol-4-yloxy)pyridin-2-ylamino)-1,2,4-thiadiazol-3-yl)ethane-1,2-diol hydrochloride] |
| 5000 to 10000 ng·h/mL | Cc1ncccc1Oc1cc(Sc2ccccn2)cnc1Nc1nc([C@@H](O)CO)ns1 [Example 149, (R)-1-(5-(3-(2-methylpyridin-3-yloxy)-5-(pyridin-2-ylthio)pyridin-2-ylamino)-1,2,4-thiadiazol-3-yl)ethane-1,2-diol] |
| 10000 to 20000 ng·h/mL | Cc1ncccc1Oc1cc(Sc2ccccn2)cnc1Nc1nc([C@](C)(O)CO)ns1.Cl [Example 150, (S)-2-(5-(3-(2-methylpyridin-3-yloxy)-5-(pyridin-2-ylthio)pyridin-2-ylamino)-1,2,4-thiadiazol-3-yl)propane-1,2-diol hydrochloride] |
| > 20000 ng·h/mL | Cc1ncccc1Oc1cc(Sc2ccccn2)cnc1Nc1nc([C@@](C)(O)CO)ns1.Cl [Example 151, (R)-2-(5-(3-(2-methylpyridin-3-yloxy)-5-(pyridin-2-ylthio)pyridin-2-ylamino)-1,2,4-thiadiazol-3-yl)propane-1,2-diol hydrochloride] |
